Assay results published in PubChem BioAssay (NCI).
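Tested at 5 concentrations; 48 h exposure; 96-well plates; endpoints linearly interpolated, else capped at highest concentration. At the TGI there is no net growth.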

Assays:
Test in all cases: NCI tumour cell line growth inhibition, 48 h
786-0 renal = system: 786-0 renal
A549 NSCLC = system: A549 NSCLC
ACHN renal = system: ACHN renal
BT-549 breast = system: BT-549 breast
CAKI-1 renal = system: CAKI-1 renal
CCRF-CEM leukemia = system: CCRF-CEM leukemia
COLO 205 colon = system: COLO 205 colon
DU-145 prostate = system: DU-145 prostate
EKVX NSCLC = system: EKVX NSCLC
HCC-2998 colon = system: HCC-2998 colon
HCT-116 colon = system: HCT-116 colon
HCT-15 colon = system: HCT-15 colon
HL-60(TB) leukemia = system: HL-60(TB) leukemia
HOP-62 NSCLC = system: HOP-62 NSCLC
HS 578T breast = system: HS 578T breast
HT29 colon = system: HT29 colon
IGROV1 ovarian = system: IGROV1 ovarian
K-562 leukemia = system: K-562 leukemia
KM12 colon = system: KM12 colon
LOX IMVI melanoma = system: LOX IMVI melanoma
M14 melanoma = system: M14 melanoma
MALME-3M melanoma = system: MALME-3M melanoma
MCF7 breast = system: MCF7 breast
MDA-MB-231 breast = system: MDA-MB-231 breast
MDA-MB-435 = system: MDA-MB-435
MDA-N = system: MDA-N
MOLT-4 leukemia = system: MOLT-4 leukemia
NCI-H226 lung = system: NCI-H226 lung
NCI-H23 lung = system: NCI-H23 lung
NCI-H460 lung = system: NCI-H460 lung
NCI-H522 lung = system: NCI-H522 lung
NCI/ADR-RES ovarian = system: NCI/ADR-RES ovarian
OVCAR-3 ovarian = system: OVCAR-3 ovarian
OVCAR-4 ovarian = system: OVCAR-4 ovarian
OVCAR-5 ovarian = system: OVCAR-5 ovarian
OVCAR-8 ovarian = system: OVCAR-8 ovarian
PC-3 prostate = system: PC-3 prostate
RPMI-8226 leukemia = system: RPMI-8226 leukemia
RXF 393 renal = system: RXF 393 renal
SF-268 CNS = system: SF-268 CNS
SF-295 CNS = system: SF-295 CNS
SF-539 CNS = system: SF-539 CNS
SK-MEL-2 melanoma = system: SK-MEL-2 melanoma
SK-MEL-28 melanoma = system: SK-MEL-28 melanoma
SK-MEL-5 melanoma = system: SK-MEL-5 melanoma
SK-OV-3 ovarian = system: SK-OV-3 ovarian
SN12C renal = system: SN12C renal
SNB-19 CNS = system: SNB-19 CNS
SNB-75 CNS = system: SNB-75 CNS
SW-620 colon = system: SW-620 colon
T-47D breast = system: T-47D breast
TK-10 renal = system: TK-10 renal
U251 CNS = system: U251 CNS
UACC-257 melanoma = system: UACC-257 melanoma
UACC-62 melanoma = system: UACC-62 melanoma
UO-31 renal = system: UO-31 renal
A498 renal = system: A498 renal
HOP-92 NSCLC = system: HOP-92 NSCLC
SR leukemia = system: SR leukemia

Measured: TGI

NNC(=O)c1ccccc1Nc1ccccc1C(=O)NN
not listed: A498 renal | HOP-92 NSCLC | SR leukemia
> 100 µM: all other assays above

COC(=O)C1C(O)CCC2CN3CCc4c([nH]c5cccc(OC)c45)C3CC21 (stereo not given)
not listed: NCI/ADR-RES ovarian | SK-MEL-5 melanoma
> 100 µM: all other assays above

CCOC(=O)CC(=O)C(=O)NNC1=NCCCN1
not listed: CAKI-1 renal | NCI-H522 lung | NCI/ADR-RES ovarian | UACC-257 melanoma | A498 renal
> 100 µM: all other assays above

CN(c1ccccc1)S(=O)(=O)c1ccccc1[N+](=O)[O-]
not listed: SK-MEL-5 melanoma | A498 renal | HOP-92 NSCLC
> 100 µM: all other assays above

CCOC(=O)/C(=C\NCC(OCC)OCC)c1nc2ccccc2[nH]1
52.3 µM: HL-60(TB) leukemia
71.5 µM: NCI-H460 lung
24.4 µM: NCI/ADR-RES ovarian
44.7 µM: SK-MEL-2 melanoma
73.3 µM: MDA-MB-435
56.4 µM: NCI-H23 lung
62.1 µM: NCI-H522 lung
55.4 µM: LOX IMVI melanoma
62.4 µM: BT-549 breast
39.6 µM: COLO 205 colon
51.8 µM: HCT-15 colon
41.3 µM: MOLT-4 leukemia
94.5 µM: T-47D breast
58.7 µM: UACC-257 melanoma
39.5 µM: RPMI-8226 leukemia
81 µM: K-562 leukemia
28.5 µM: SK-MEL-5 melanoma
63.7 µM: PC-3 prostate
61.6 µM: SNB-75 CNS
61.5 µM: MALME-3M melanoma
71.1 µM: HT29 colon
95 µM: EKVX NSCLC
85.2 µM: MDA-N
77 µM: SK-MEL-28 melanoma
61.9 µM: OVCAR-3 ovarian
58.5 µM: SR leukemia
51.3 µM: HCC-2998 colon
33.2 µM: UACC-62 melanoma
not listed: MDA-MB-231 breast
> 100 µM: all other assays above

CC(=O)OC1CC(O)CC2=CCC3C4CCC(C(C)(O)C(O)CC5COC(=O)C5C)C4(C)CCC3C21C (stereo not given)
12.8 µM: HL-60(TB) leukemia
not listed: MALME-3M melanoma | NCI/ADR-RES ovarian
> 25 µM: all other assays above

Cc1cc(O)c(C(C)C)cc1CN1CCCCC1
not listed: SK-MEL-2 melanoma | SR leukemia
> 100 µM: all other assays above
